Laboratory results published in patent US5496564A, “Suspendible composition and process for preparing the same” (Fujisawa Pharmaceutical Co., Ltd., priority 1990, dated 1996).

Experiment: Absorption test by oral administration: concentration in whole blood
Type: in vivo
Details: cynomolgus monkey, cynomolgus monkeys (six), oral 0.32 mg/kg, aqueous suspension of Prescription 7 diluted to 0.064 mg/ml, average ± standard error, read-out: Conc. in whole blood
Method: The aqueous suspension obtained in Prescription 7 was used.
The oral agent mentioned above was diluted with purified water to have the concentration of FK 506 substance of 0.064 mg/ml. The resultant was orally administered to six cynomolgus monkeys (0.32 mg/kg).
The concentration of FK 506 substance in whole blood was measured 0.5, 1, 2, 4 and 6 hours after the administration in accordance with the aforesaid enzyme immunoassay.
The test results are represented by the average ± standard error.

concentration at 0.5 h (0.5 hours): 13.4 ± 9.88 ng/mL
concentration at 1 h (1 hour): 18.6 ± 9.36 ng/mL
concentration at 2 h (2 hours): 18.6 ± 9.89 ng/mL
concentration at 4 h (4 hours): 15.3 ± 7.77 ng/mL
concentration at 6 h (6 hours): 12.4 ± 9.33 ng/mL
Compound: C=CCC1C=C(C)CC(C)CC(OC)C2OC(O)(C(=O)C(=O)N3CCCCC3C(=O)OC(C(C)=CC3CCC(O)C(OC)C3)C(C)C(O)CC1=O)C(C)CC2OC (centres unmarked) [FK 506 substance, 17-allyl-1,14-dihydroxy-12-[2-(4-hydroxy-3-methoxycyclohexyl)-1-methylvinyl]-23,25-dimethoxy-13,19,21,27-tetramethyl-11,28-dioxa-4-azatricyclo-[22.3.1.0^4,9]octacos-18-ene-2,3,10,16-tetraone]
